pEC50, pIC50: −log10 of the molar value. Values after ≈ are worked out from the molar mass of the structure shown.

Holding throughout (assay type): cell-based
A short description of one series: in vitro.
Series [1] deals with P. falciparum 3D7 (chloroquine-sensitive). Kind of series: Anti-malarial activity, P. falciparum 3D7 culture, 72 hour, DNA content by flow cytometry. The following applies: Plasmodium falciparum, 3D7, 72 h, synchronized ring-stage parasites. How it is done: Numerous compounds were screened in cultures of the malaria parasite P. falciparum 3D7 (chloroquine-sensitive) and DD2 (chloroquine-resistant). The compounds were also screened for toxixcity against 3T3 cells, HepG2 cells, and in a hemolysis assay. In brief, P. falciparum parasites were cultured in RPMI 1640 (Invitrogen) supplemented with Albumax II (Invitrogen). For synchronization, schizont stage parasites were magnet purified using a SuperMACS™ II Cell Separation Unit (Miltenyi Biotech). For IC50 determinations, synchronized ring-stage parasites were plated at 0.5% parasitemia and 8% hematocrit in 96-well plates at a total volume of 50 μL. Serial dilutions of 2× concentration of the respective compound, ranging from 2.5 μM to 20 nM, were added to the wells to bring the total volume up to 100 μL and 4% hematocrit. Compounds were assayed for a 72 hour period, after which the cultures were fixed with a solution of 4% paraformaldehyde and 0.08% glutaraldhyde in PBS. The cells were then permeabilized with 0.25% Triton X-100, and SYTOX Green Nucleic Acid Stain (Invitrogen) in PBS was added to a final concentration of 5 μM. DNA content, as an indicator of parasitemia, was analyzed on an Accuri C6 Flow Cytometer with C-Sampler. IC50 curves were generated using GraphPad Prism (GraphPad Software).

Series [2] is described as follows: Cytotoxicity against HepG2 cells. The following applies: human, HepG2 cells; read-out: Cytotoxicity HepG2 EC50.
Series [3] in a line: Cytotoxicity against 3T3 cells. To be noted: mouse, 3T3 cells; read-out: Cytotoxicity 3T3 EC50.

On to `O=C(Nc1ccc(O[C@@H]2CCNC2)cc1)c1cccc(C(=O)Nc2ccc(O[C@@H]3CCNC3)cc2)n1` [Compound 193], for which, in the series “in vitro”, the EC50 is > 1000 µg/mL. This compound also had a pIC50 in series [1] of 7.35. The pEC50 in series [2] and in series [3] was < 3.00 in each case.
With `O=C(Nc1ccc(O[C@@H]2CCNC2)cc1)c1cncc(C(=O)Nc2ccc(O[C@@H]3CCNC3)cc2)c1` [Compound 194], the EC50 in “in vitro” was > 1000 µg/mL. This compound also showed a pIC50 in series [1] of 6.73. The pEC50 in series [2] and in series [3] was < 3.00 each time.
Regarding `O=C(Nc1ccc(O[C@@H]2CCNC2)cc1)c1ccnc(C(=O)Nc2ccc(O[C@@H]3CCNC3)cc2)c1` [Compound 195], the EC50 in “in vitro” is > 1000 µg/mL. The compound also gave a pIC50 in series [1] of 7.35. Also, the pEC50 in series [2] and in series [3] was < 3.00 throughout.
The compound `O=C(Nc1ccc(OC2CNC2)cc1)c1cc(C(=O)Nc2ccc(OC3CNC3)cc2)ncn1` [Compound 196] yielded an EC50 in “in vitro” of 164 µg/mL (≈ 356 µM). The compound further gave a pIC50 in series [1] of 7.52. In addition, the pEC50 is 3.03 in series [2] and < 3.00 in series [3].
The matching figures for `O=C(Nc1ccc(O[C@@H]2CCNC2)cc1)c1cc(C(=O)Nc2ccc(O[C@@H]3CCNC3)cc2)ncn1` [Compound 197]: 187 µg/mL (≈ 383 µM), 7.85, 3.06 and 3.39.
For the compound `NC1CCC(Oc2ccc(NC(=O)c3cc(C(=O)Nc4ccc(OC5CCC(N)CC5)cc4)ncn3)cc2)CC1` (stereo not drawn) [Compound 200], in the series “in vitro”, the EC50 is 24 µg/mL (≈ 44.1 µM). Also, the pIC50 in series [1] is 8.40. In addition, the pEC50 is 4.43 in series [2] and 4.57 in series [3].
As to `O=C(Nc1ccc(N2CCNCC2)cc1)c1cc(C(=O)Nc2ccc(N3CCNCC3)cc2)ncn1` [Compound 201], the midpoint of the response in “in vitro”, the EC50, lay at 48 µg/mL (≈ 98.6 µM). In addition, the pIC50 in series [1] was > 9.00. Further, the pEC50 is 3.63 in series [2] and 3.86 in series [3].
The matching figures for `CC(=O)Nc1cc(C(F)(F)F)cc(NC(=O)c2cc(C(=O)Nc3cc(C(F)(F)F)cc(N)c3SCCN)ncn2)c1SCCN` [Compound 203]: 66 µg/mL (≈ 97.5 µM), 7.07, 4.35 and 4.82.
The compound `CN1CC[C@@H](Oc2ccc(NC(=O)c3cc(C(=O)Nc4ccc(O[C@@H]5CCN(C)C5)c(C(F)(F)F)c4)ncn3)cc2C(F)(F)F)C1` [Compound 204] came in with an EC50 in the series “in vitro” of 88 µg/mL (≈ 135 µM). The pIC50 in series [1] is 6.99. Further, the pEC50 in series [2] and in series [3] was 3.32 throughout.
Compound `O=C(Nc1ccc(O[C@@H]2CCNC2)c(Cl)c1)c1cc(C(=O)Nc2ccc(O[C@@H]3CCNC3)c(Cl)c2)ncn1` [Compound 205] showed an EC50 in “in vitro” of 176 µg/mL (≈ 316 µM). For the same compound, the pIC50 in series [1] was 7.15. Also, the pEC50 was 3.51 in series [2] and 4.40 in series [3].
Take `N#Cc1cc(NC(=O)c2cc(C(=O)Nc3ccc(O[C@@H]4CCNC4)c(C#N)c3)ncn2)ccc1O[C@@H]1CCNC1` [Compound 206]: in the series “in vitro”, the EC50 was > 1000 µg/mL. For the same compound, the pIC50 in series [1] was 6.75. Besides, the pEC50 in series [2] and in series [3] was < 3.00 throughout.
As to `O=C(Nc1ccc(O[C@H]2CCNC2)cc1)c1cc(C(=O)Nc2ccc(O[C@H]3CCNC3)cc2)ncn1` [Compound 207], the EC50 in the series “in vitro” worked out at 29 µg/mL (≈ 59.4 µM). The compound further had a pIC50 in series [1] of 6.74. Also, the pEC50 was 3.09 in series [2] and 3.32 in series [3].
The matching figures for `O=C(Nc1ccc(C2CCNCC2)cc1)c1cc(C(=O)Nc2ccc(C3CCNCC3)cc2)ncn1` [Compound 208]: 12 µg/mL (≈ 24.8 µM), 6.86, 3.74 and 3.91.
Taken in the same sequence, the figures for `O=C(Nc1ccc(OC2CCNCC2)nc1)c1cc(C(=O)Nc2ccc(OC3CCNCC3)nc2)ncn1` [Compound 214] were > 1000 µg/mL, < 7.00, < 3.00 and < 3.00.
The matching figures for `O=C(Nc1ccc(O[C@@H]2CCNC2)nc1)c1cc(C(=O)Nc2ccc(O[C@@H]3CCNC3)nc2)ncn1` [Compound 215]: > 1000 µg/mL, < 7.00, < 3.00 and < 3.00.
For the compound `CN(C)C1CCN(c2ccc(NC(=O)c3cccc(C(=O)Nc4ccc(N5CCC(N(C)C)CC5)cc4)n3)cc2)CC1` [Compound 216], the EC50 in “in vitro” was > 1000 µg/mL. In addition, the pIC50 in series [1] was < 7.00. Moreover, the pEC50 in series [2] and in series [3] was < 3.00 throughout.
Turning to `CN(C)C1CCN(c2ccc(NC(=O)c3ccnc(C(=O)Nc4ccc(N5CCC(N(C)C)CC5)cc4)c3)cc2)CC1` [Compound 217], the EC50 in “in vitro” is > 1000 µg/mL. Further, the pIC50 in series [1] is < 7.00. For the same compound, the negative logarithm of the EC50 (pEC50) in series [2] and in series [3] was < 3.00 each time.
In the case of `N=C(N)NCCc1cccc(-c2cc(-c3cccc(CCNC(=N)N)c3)ncn2)c1` [Compound 221], in the series “in vitro”, the EC50 was > 1000 µg/mL. In series [1], this compound gave a pIC50 of 7.10. Moreover, the pEC50 in series [2] and in series [3] was < 3.00 throughout.
Take `N=C(N)NCCSc1nc(-c2cccc(CCNC(=N)N)c2)cc(-c2cccc(CCNC(=N)N)c2)n1` [Compound 222]: the EC50 in the series “in vitro” was > 1000 µg/mL. In addition, the pIC50 in series [1] was 6.26. Besides, the pEC50 was < 3.00 in series [2] and 3.12 in series [3].
Turning to `NCCCc1cccc(-c2cncc(-c3ccc(-c4cncc(-c5cccc(CCCN)c5)c4)s3)c2)c1` [Compound 232], the EC50 in “in vitro” worked out at 6 µg/mL (≈ 11.9 µM). The same compound showed a pIC50 in series [1] of 6.56. In addition, the results for the pEC50 in series [2] and in series [3] were 4.25 and 4.43, respectively.
Taken in the same sequence, the figures for `N=C(N)NCCCc1cccc(-c2cncc(-c3ccc(-c4cncc(-c5cccc(CCCNC(=N)N)c5)c4)s3)c2)c1` [Compound 233] were 2 µg/mL (≈ 3.4 µM), 6.13, 4.06 and 4.21.
Consider `N=C(N)NCCc1ccc(-c2ccc(-c3ccc(CCNC(=N)N)cc3)s2)cc1` [Compound 248], for which a half-maximal response in “in vitro” (EC50) required 24 µg/mL (≈ 59 µM). The same compound gave a pIC50 in series [1] of 8.52. The pEC50 in series [2] was 4.27; in series [3] it was 4.30.
As for `c1cc(N2CCNCC2)ccc1-c1ccc(-c2ccc(N3CCNCC3)cc2)s1` [Compound 252], the EC50 in the series “in vitro” was found to be 12 µg/mL (≈ 29.7 µM). In series [1], this compound showed a pIC50 of 8.40. In addition, the pEC50 in series [2] and in series [3] was < 3.00 each time.
As for `N=C(N)N1CCN(c2ccc(-c3ccc(-c4ccc(N5CCN(C(=N)N)CC5)cc4)s3)cc2)CC1` [Compound 253], the EC50 in “in vitro” turned out to be 8 µg/mL (≈ 16.4 µM). In series [1], this compound gave a pIC50 of 6.97. For the same compound, the results for the pEC50 in series [2] and in series [3] were 3.22 and 3.38, respectively.
The matching figures for `N=C(N)N1CCN(c2ccc(-c3ccc(-c4ccc(N5CCN(C(=N)N)CC5)nc4)s3)cn2)CC1` [Compound 254]: 36 µg/mL (≈ 73.4 µM), 6.81, 4.31 and 4.49.
In the series “in vitro”, `c1cc(N2CCNCC2)ccc1-c1ccc(-c2ccc(N3CCNCC3)cc2)o1` [Compound 255] returned an EC50 of 28 µg/mL (≈ 72.1 µM). Moreover, in series [1], the pIC50 is 6.82. Moreover, the pEC50 in series [2] was 4.35; in series [3] it was 4.54.
Consider `c1cc(-c2ccc(N3CCNCC3)nc2)cc(-c2ccc(N3CCNCC3)nc2)c1` [Compound 257], for which, in “in vitro”, the EC50 was > 1000 µg/mL. Further, the pIC50 in series [1] is < 7.00. The pEC50 is 3.66 in series [2] and 4.40 in series [3].
The matching figures for `N=C(N)N1CCN(c2ccc(-c3cccc(-c4ccc(N5CCN(C(=N)N)CC5)nc4)c3)cn2)CC1` [Compound 258]: 545 µg/mL (≈ 1120 µM), 7.24, 3.52 and 3.78.
Taken in the same sequence, the figures for `Cn1c(-c2ccc(N3CCNCC3)cc2)cnc1-c1ccc(N2CCNCC2)cc1` [Compound 259] were 287 µg/mL (≈ 713 µM), < 7.00, < 3.00 and < 3.00.
On to `Cn1c(-c2ccc(N3CCN(C(=N)N)CC3)cc2)cnc1-c1ccc(N2CCN(C(=N)N)CC2)cc1` [Compound 261], for which the EC50 in the series “in vitro” was > 1000 µg/mL. The pIC50 in series [1] is 7.11. For the same compound, the pEC50 in series [2] is 3.03; in series [3], < 3.00.
The matching figures for `N=C(N)NCCSc1ccc(NC(=O)Nc2cccc(CCNC(=N)N)c2)cc1C(F)(F)F` [Compound 270]: 317 µg/mL (≈ 657 µM), 6.97, 3.15 and 3.40.
The matching figures for `COc1cc(SCCN)c(C(F)(F)F)cc1NC(=O)Nc1ccc(SCCNC(=N)N)c(C(F)(F)F)c1` [Compound 276]: 65 µg/mL (≈ 114 µM), 5.95, 3.81 and 4.38.
The matching figures for `NCCCOc1cc(OCCCN)cc(-c2ccc3c(c2)c2cc(-c4cc(OCCCN)cc(OCCCN)c4)ccc2n3CCCN)c1` [Compound 279]: > 1000 µg/mL, 6.11, 3.05 and 3.36.

The values are drawn from patent US20150094294A1, “COMPOUNDS AND METHODS FOR TREATING MALARIA” (Cellceutix Corporation, priority 2012, published 2015).
